Test results: the supplement of paper PMC6965134
± gives the standard deviation of the averaged measurements.

Experiment: TIMS collisional cross section (CCS, N2) of the lipid ion; higher = larger ion cross section
Conditions: ionization mode: negative, one isomer drawn
Method: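 Lipid extracts of human plasma (NIST SRM 1950), mouse liver or HeLa cells were separated by nanoflow C18 LC (30 min gradient) and analysed by TIMS-PASEF on a timsTOF Pro. Ion mobility was calibrated with the Agilent tuning mix (negative mode ions) and converted to collisional cross sections (Mason–Schamp, N2).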

[1] = sample type: Human plasma, ion (formula + adduct): [C48H84NO8P+HCOO] 1-
[2] = sample type: Mouse Liver, ion (formula + adduct): [C46H86NO8P+HCOO] 1-
[3] = sample type: Human plasma, ion (formula + adduct): [C46H84NO8P+HCOO] 1-
[4] = sample type: Human plasma, ion (formula + adduct): [C46H82NO8P+HCOO] 1-
[5] = sample type: Mouse Liver, ion (formula + adduct): [C48H84NO8P+HCOO] 1-
[6] = sample type: Mouse Liver, ion (formula + adduct): [C44H80NO8P+HCOO] 1-
[7] = sample type: Mouse Liver, ion (formula + adduct): [C46H78NO8P-CH3] 1-
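Note: lipids from MTBE extraction, five replicate injections per sample, 100 ms TIMS ramp spanning 0.6–1.95 Vs/cm², lipid identity assigned from PASEF MS/MS spectra.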

SMILES: CC/C=C\C/C=C\C/C=C\C/C=C\C/C=C\C/C=C\CCC(=O)O[C@H](COC(=O)CCCCCCCCCCCCCCCCC)COP(=O)([O-])OCC[N+](C)(C)C [PC 18:0@_22:6]
- TIMS collisional cross section [1]: 303.4 Å²

SMILES: C=CC(=O)O[C@H](COC(=O)CCCCCCCCCCCCCCCCC)COP(=O)([O-])OCC[N+](C)(C)C [PC 18:0_3:1@]
- TIMS collisional cross section (sample type: Mouse Liver, ion (formula + adduct): [C29H56NO8P+AcO] 1-): 260.8 Å²
- TIMS collisional cross section (sample type: Mouse Liver, ion (formula + adduct): [C29H56NO8P+HCOO] 1-): 243.4 Å²

SMILES: C=CC(=O)O[C@H](COC(=O)CCCCCCCCCCCCCCCCC)COP(=O)([O-])OCC[N+](C)(C)C [PC 18:0_3:1]
- TIMS collisional cross section (sample type: Human plasma, ion (formula + adduct): [C29H56NO8P+AcO] 1-): 252.1 Å²

SMILES: CCCCCCCCCCCCCCCCCC(=O)OC[C@H](COP(=O)([O-])OCC[N+](C)(C)C)OC(=O)CCCCCCCCCCCCCCCCC [PC 18:0_18:0]
- TIMS collisional cross section (sample type: Mouse Liver, ion (formula + adduct): [C44H88NO8P+HCOO] 1-): 298.4 Å²

SMILES: CCCCC/C=C\C=C/CCCCCCCCC(=O)O[C@H](COC(=O)CCCCCCCCCCCCCCCCC)COP(=O)([O-])OCC[N+](C)(C)C [PC 18:0_18:2]
- TIMS collisional cross section (sample type: Human plasma, ion (formula + adduct): [C44H84NO8P+HCOO] 1-): 296.5 ± 0.35 Å²
- TIMS collisional cross section (sample type: Mouse Liver, ion (formula + adduct): [C44H84NO8P+HCOO] 1-): 295.9 ± 0.17 Å²

SMILES: CCCCCCCC/C=C\CCCCCCCCCC(=O)O[C@H](COC(=O)CCCCCCCCCCCCCCCCC)COP(=O)([O-])OCC[N+](C)(C)C [PC 18:0_20:1]
- TIMS collisional cross section (sample type: Mouse Liver, ion (formula + adduct): [C46H90NO8P+HCOO] 1-): 302.3 Å²

SMILES: CCCCC/C=C\C/C=C\CCCC/C=C\CCCC(=O)O[C@H](COC(=O)CCCCCCCCCCCCCCCCC)COP(=O)([O-])OCC[N+](C)(C)C [PC 18:0_20:3@]
- TIMS collisional cross section [2]: 300.6 Å²

SMILES: CCCCC/C=C\C/C=C\CCCC/C=C\CCCC(=O)O[C@H](COC(=O)CCCCCCCCCCCCCCCCC)COP(=O)([O-])OCC[N+](C)(C)C [PC 18:0_20:3]
- TIMS collisional cross section (sample type: Human plasma, ion (formula + adduct): [C46H86NO8P+HCOO] 1-): 300.6 Å²
- TIMS collisional cross section [2]: 300 Å²

SMILES: CCCCC/C=C\C/C=C\C/C=C\C/C=C\CCCC(=O)O[C@H](COC(=O)CCCCCCCCCCCCCCCCC)COP(=O)([O-])OCC[N+](C)(C)C [PC 18:0_20:4]
- TIMS collisional cross section [3]: 299.5 Å²
- TIMS collisional cross section (sample type: Mouse Liver, ion (formula + adduct): [C46H84NO8P+HCOO] 1-): 299.5 ± 0.85 Å²
- TIMS collisional cross section (sample type: Mouse Liver, ion (formula + adduct): [C46H84NO8P-CH3] 1-): 282.4 Å²

SMILES: CC/C=C\C/C=C\C/C=C\C/C=C\C/C=C\CCCC(=O)O[C@H](COC(=O)CCCCCCCCCCCCCCCCC)COP(=O)([O-])OCC[N+](C)(C)C [PC 18:0_20:5]
- TIMS collisional cross section [4]: 299.5 Å²

SMILES: CCCCC/C=C\C/C=C\C/C=C\C/C=C\CCCCCC(=O)O[C@H](COC(=O)CCCCCCCCCCCCCCCCC)COP(=O)([O-])OCC[N+](C)(C)C [PC 18:0_22:4]
- TIMS collisional cross section (sample type: Human plasma, ion (formula + adduct): [C48H88NO8P+HCOO] 1-): 305.1 Å²
- TIMS collisional cross section (sample type: Mouse Liver, ion (formula + adduct): [C48H88NO8P+HCOO] 1-): 304.5 Å²

SMILES: CC/C=C\C/C=C\C/C=C\C/C=C\C/C=C\C/C=C\CCC(=O)O[C@H](COC(=O)CCCCCCCCCCCCCCCCC)COP(=O)([O-])OCC[N+](C)(C)C [PC 18:0_22:6]
- TIMS collisional cross section [1]: 303.4 Å²
- TIMS collisional cross section [5]: 302.2 Å²

SMILES: CC/C=C\C/C=C\C/C=C\CCCCCCCC(=O)O[C@H](COC(=O)CCCCCCC/C=C\CCCCCCCC)COP(=O)([O-])OCC[N+](C)(C)C [PC 18:1@_18:3]
- TIMS collisional cross section [6]: 292.7 Å²

SMILES: CCCCC/C=C\C/C=C\C/C=C\C/C=C\CCCC(=O)O[C@H](COC(=O)CCCCCCC/C=C\CCCCCCCC)COP(=O)([O-])OCC[N+](C)(C)C [PC 18:1@_20:4]
- TIMS collisional cross section [4]: 298.3 Å²

SMILES: CCCCCCCC/C=C\CCCCCCCC(=O)OC[C@H](COP(=O)([O-])OCC[N+](C)(C)C)OC(=O)CCCCCCCCCCCCCCCCCC [PC 18:1_19:0]
- TIMS collisional cross section (sample type: Mouse Liver, ion (formula + adduct): [C45H88NO8P+HCOO] 1-): 299.5 Å²

SMILES: CCCCC/C=C\C/C=C\C/C=C\C/C=C\CCCC(=O)O[C@H](COC(=O)CCCCCCC/C=C\CCCCCCCC)COP(=O)([O-])OCC[N+](C)(C)C [PC 18:1_20:4]
- TIMS collisional cross section [4]: 298.3 Å²
- TIMS collisional cross section (sample type: Mouse Liver, ion (formula + adduct): [C46H82NO8P+HCOO] 1-): 297.7 Å²

SMILES: CC/C=C\C/C=C\C/C=C\C/C=C\C/C=C\CCCCCC(=O)O[C@H](COC(=O)CCCCCCCCC/C=C\CCCCCC)COP(=O)([O-])OCC[N+](C)(C)C [PC 18:1_22:5]
- TIMS collisional cross section [1]: 302.8 Å²
- TIMS collisional cross section [5]: 302.2 Å²

SMILES: CCCCC/C=C\C/C=C\C/C=C\C/C=C\CCCCCC(=O)O[C@H](COC(=O)CCCCCCC/C=C\C/C=C\CCCCC)COP(=O)([O-])OCC[N+](C)(C)C [PC 18:2@_22:4]
- TIMS collisional cross section [5]: 301.7 Å²

SMILES: CCCCC/C=C/C=C\CCCCCCCC(=O)O[C@H](COC(=O)CCCCCCC/C=C\C/C=C/CCCCC)COP(=O)([O-])OCC[N+](C)(C)C [PC 18:2_17:2]
- TIMS collisional cross section (sample type: Mouse Liver, ion (formula + adduct): [C43H78NO8P+HCOO] 1-): 289.3 Å²

SMILES: CCCCCCCCCCCCC/C=C/C=C/C(=O)OC[C@H](COP(=O)([O-])OCC[N+](C)(C)C)OC(=O)/C=C/C=C/CCCCCCCCCCCCC [PC 18:2_18:2]
- TIMS collisional cross section (sample type: Human plasma, ion (formula + adduct): [C44H80NO8P+HCOO] 1-): 293.4 ± 0.35 Å²
- TIMS collisional cross section [6]: 292.7 Å²

SMILES: CCCCC/C=C\C/C=C\CCCCCCCC(=O)OC[C@H](COP(=O)([O-])OCC[N+](C)(C)C)OC(=O)CCCCCCCCCCCCCCCCCC [PC 18:2_19:0]
- TIMS collisional cross section (sample type: Mouse Liver, ion (formula + adduct): [C45H86NO8P+HCOO] 1-): 299 Å²

SMILES: CCCCC/C=C\C/C=C\CCCCCCCCCC(=O)O[C@H](COC(=O)CCCCCCC/C=C\C/C=C\CCCCC)COP(=O)([O-])OCC[N+](C)(C)C [PC 18:2_20:2]
- TIMS collisional cross section [3]: 299.5 Å²

SMILES: CCCCC/C=C\C/C=C\C/C=C\CCCCCCC(=O)O[C@H](COC(=O)CCCCCCC/C=C\C/C=C\CCCCC)COP(=O)([O-])OCC[N+](C)(C)C [PC 18:2_20:3]
- TIMS collisional cross section [4]: 299.2 Å²

SMILES: CCCCC/C=C\C/C=C\C/C=C\C/C=C\CCCC(=O)O[C@H](COC(=O)CCCCCCC/C=C\C/C=C\CCCCC)COP(=O)([O-])OCC[N+](C)(C)C [PC 18:2_20:4]
- TIMS collisional cross section (sample type: Human plasma, ion (formula + adduct): [C46H80NO8P+HCOO] 1-): 296.8 ± 0.92 Å²
- TIMS collisional cross section (sample type: Mouse Liver, ion (formula + adduct): [C46H80NO8P+HCOO] 1-): 295.7 ± 0.42 Å²

SMILES: CC/C=C\C/C=C\C/C=C\C/C=C\C/C=C\CCCC(=O)O[C@H](COC(=O)CCCCCCC/C=C\C/C=C\CCCCC)COP(=O)([O-])OCC[N+](C)(C)C [PC 18:2_20:5@]
- TIMS collisional cross section [7]: 276.6 Å²

SMILES: CC/C=C\C/C=C\C/C=C\C/C=C\C/C=C\CCCC(=O)O[C@H](COC(=O)CCCCCCC/C=C\C/C=C\CCCCC)COP(=O)([O-])OCC[N+](C)(C)C [PC 18:2_20:5]
- TIMS collisional cross section (sample type: Human plasma, ion (formula + adduct): [C46H78NO8P+HCOO] 1-): 294.9 Å²

SMILES: CCCCC/C=C\C/C=C\C/C=C\C/C=C\CCCCCC(=O)O[C@H](COC(=O)CCCCCCC/C=C\C/C=C\CCCCC)COP(=O)([O-])OCC[N+](C)(C)C [PC 18:2_22:4@]
- TIMS collisional cross section (sample type: Human plasma, ion (formula + adduct): [C48H84NO8P-CH3] 1-): 303.8 Å²

SMILES: CCCCC/C=C\C/C=C\C/C=C\C/C=C\C/C=C\CCC(=O)O[C@H](COC(=O)CCCCCCC/C=C\C/C=C\CCCCC)COP(=O)([O-])OCC[N+](C)(C)C [PC 18:2_22:5]
- TIMS collisional cross section (sample type: Mouse Liver, ion (formula + adduct): [C48H82NO8P+HCOO] 1-): 299.9 Å²

SMILES: CC/C=C\C/C=C\C/C=C\C/C=C\C/C=C\C/C=C\CCC(=O)O[C@H](COC(=O)CCCCCCC/C=C\C/C=C\CCCCC)COP(=O)([O-])OCC[N+](C)(C)C [PC 18:2_22:6]
- TIMS collisional cross section (sample type: Human plasma, ion (formula + adduct): [C48H80NO8P+HCOO] 1-): 298.8 Å²
- TIMS collisional cross section (sample type: Mouse Liver, ion (formula + adduct): [C48H80NO8P+HCOO] 1-): 298.8 Å²

SMILES: CCCCC/C=C\C/C=C\C/C=C\C/C=C\CCCC(=O)O[C@H](COC(=O)CCCC/C=C\C/C=C\C/C=C\CCCCC)COP(=O)([O-])OCC[N+](C)(C)C [PC 18:3@_20:4]
- TIMS collisional cross section (sample type: Mouse Liver, ion (formula + adduct): [C46H78NO8P+HCOO] 1-): 296 Å²
- TIMS collisional cross section [7]: 277.2 Å²

SMILES: CCCC/C=C/C=C/C=C/CCCCCCCC(=O)OC[C@H](COP(=O)([O-])OCC[N+](C)(C)C)OC(=O)CCCCCCC/C=C/C=C/C=C/CCCC [PC 18:3_18:3]
- TIMS collisional cross section (sample type: Mouse Liver, ion (formula + adduct): [C44H76NO8P+HCOO] 1-): 289.8 Å²

SMILES: CCCCC/C=C\C/C=C\C/C=C\CCCCCCC(=O)O[C@H](COC(=O)CCCC/C=C\C/C=C\C/C=C\CCCCC)COP(=O)([O-])OCC[N+](C)(C)C [PC 18:3_20:3]
- TIMS collisional cross section (sample type: Human plasma, ion (formula + adduct): [C46H80NO8P+AcO] 1-): 300.6 Å²
